Laboratory results: patent US20260325481A1, “THERAPY SELECTION AND TREATMENT OF NEURODEGENERATIVE DISORDERS” (Anavex Life Sciences Corp., priority 2022, published 2026)

Test system: gene clusters differentially expressed in PDD patients
Assay: RNAseq whole blood transcriptomics, gene clusters overall
Set-up: species or system human
Experimental: In order to gain insights into ANAVEX 2-73 response pathways, during the Phase 2 study, patients' DNA and RNA sequencing were analyzed. Transcriptomic samples of 65 patients enrolled in either High Dose or Mid Dose arms were collected at baseline and at the end of treatment (Week 14). The expression of 14,150 genes was measured. No transformation was applied to the TPM values. Values associated with a with RIN s 4.0 were discarded. The actual dose of ANAVEX 2-73 (blarcamesine) that was given to each patient during the trial was assessed and integrated into the database. To characterize the gene dysregulations, a pathway database was built using an aggregation of public databases including KEGG, Panther, Allen, Brain Atlas, Gene Ontology, and Reactome.
The genes were clustered together using WGCNA, starting from their correlation of TPM expression values across samples. Seventeen clusters with size ranging from 13 to 11,190 genes were obtained through this gene clusterisation. The TPM expression values of genes in clusters were then aggregated in a single “eigengene” for each cluster. This eigengene served as a representant of the overall dysregulation of the cluster. […] For each cluster, the contrast ActualDose, i.e. treated vs placebo were evaluated across all timepoints. […] The ratio between cluster size and number of pathways was calculated, and top 2 clusters were retained for further Analysis. […] Known interactions between the genes of the cluster were assessed using STRING database with the parameters of Edge score >0.150, and no text mining edges. […]
Whole Blood Transcriptomics Analysis (RNAseq) of patients with Parkinson's disease with dementia (PDD) was performed for the ANAVEX®2-73-PDD-001 study (FIG. 1) at two timepoints: Baseline and Week 14 (end of trial). All available RNA samples with […] (RNA integrity number, using 130 samples) were analyzed. The expression of 14,150 genes at these two timepoints were analyzed from both placebo and ANAVEX® 2-73 treated patients. […]

## CN(C)CC1CCOC1(c1ccccc1)c1ccccc1.Cl (stereo not drawn) [ANAVEX2-73, tetrahydro-N,N-dimethyl-2,2-diphenyl-3-furanmethanamine hydrochloride]
Dunnett's test, linear mixed-effect model
  Number of clusters with significant association between treatment and estimated marginal mean expression: 6 clusters
Highest dose
  Dysregulations of Clusters 1 and 2: significantly linked to the highest dose
Treated patients compared to placebo, 14 weeks
  Regulation of both identified clusters: up-regulated
